Test results as given in US5262519A, “GRF analogs XI” (The Salk Institute for Biological Studies, priority 1991, dated 1993).
Square brackets hold non-standard residues; d marks the D form. Ends that are not written are not given here. Peptide text beside a SMILES is read from it. Nle = CCCC[C@H](N)C(=O)O

System: cells of rat pituitary glands
Assay: in vitro release of growth hormone from cultured rat pituitary cells, GH measured by radioimmunoassay
Assay type: cell-based
Details: potency for GH release relative to standard hGRF(1-40)-OH = 1.0; equimolar concentrations; 3 to 4 hours incubation; range in parentheses
Procedure: To determine the relative effectiveness of synthetic peptides to promote the release of growth hormone, in vitro assays are carried out using synthetic hpGRF(1-40)-OH as a standard in side-by-side comparison with equimolar concentrations of the representative analogs which have been synthesized. Cultures are used which include cells of rat pituitary glands removed some three to five days previously. Such cultures are considered optimal for the secretion of growth hormone and are used for the comparative testing, in the general manner described in Vale et al. Endocrinology, 91, 562-572 (1972) and as more particularly described in Vale et al. Endocrinology, 112, 1553-1555 (1983). Incubation with the substance to be tested is carried out for 3 to 4 hours, and aliquots of the culture medium are removed and processed to measure their contents in immunoreactive GH(ir GH) by a well-characterized radioimmunoassay.

CCCC[C@H](NC(=O)[C@@H](NC(=O)[C@H](C)NC(=O)[C@H](CCC(N)=O)NC(=O)[C@H](CC(C)C)NC(=O)[C@H](CC(C)C)NC(=O)[C@H](CCCCN)NC(=O)[C@H](CCCNC(=N)N)NC(=O)[C@H](C)NC(=O)[C@H](CO)NC(=O)[C@H](CC(C)C)NC(=O)[C@H](CCC(N)=O)NC(=O)CNC(=O)[C@H](CC(C)C)NC(=O)[C@@H](NC(=O)[C@H](CCCCN)NC(=O)[C@H](CCCNC(=N)N)NC(=O)[C@H](Cc1ccc(O)cc1)NC(=O)[C@H](CO)NC(=O)[C@H](CC(N)=O)NC(=O)[C@@H](NC(=O)[C@H](Cc1ccccc1)NC(=O)[C@@H](NC(=O)[C@H](C)NC(=O)[C@H](CC(=O)O)NC(=O)[C@H](C)NC(=O)[C@@H](N)Cc1ccc(O)cc1)[C@@H](C)CC)[C@@H](C)O)C(C)C)[C@@H](C)CC)C(=O)N[C@@H](CO)C(=O)N[C@@H](CCCNC(=N)N)C(N)=O [Example No. 4, [Ala^25, Nle^27]-hGRF(1-29)-NH2] (H-YADAIFTNSYRKVLGQLSARKLLQAI[Nle]SR-NH2)
In Vitro Potencies: 1.34(0.837-2.190)

CCCC[C@H](NC(=O)[C@@H](NC(=O)[C@H](CC(=O)O)NC(=O)[C@H](CCC(N)=O)NC(=O)[C@H](CC(C)C)NC(=O)[C@H](CC(C)C)NC(=O)[C@H](CCCCN)NC(=O)[C@H](CCCNC(=N)N)NC(=O)[C@H](C)NC(=O)[C@H](CO)NC(=O)[C@H](CC(C)C)NC(=O)[C@H](CCC(N)=O)NC(=O)CNC(=O)[C@H](CC(C)C)NC(=O)[C@@H](NC(=O)[C@H](CCCCN)NC(=O)[C@H](CCCNC(=N)N)NC(=O)[C@H](Cc1ccc(O)cc1)NC(=O)[C@H](CO)NC(=O)[C@H](C)NC(=O)[C@@H](NC(=O)[C@H](Cc1ccccc1)NC(=O)[C@@H](NC(=O)[C@H](C)NC(=O)[C@H](CC(=O)O)NC(=O)[C@H](C)NC(=O)[C@@H](N)Cc1ccc(O)cc1)[C@@H](C)CC)[C@@H](C)O)C(C)C)[C@@H](C)CC)C(=O)N[C@@H](CO)C(=O)N[C@@H](CCCNC(=N)N)C(N)=O [Example No. 1, [Ala^8, Nle^27]-hGRF(1-29)-NH2] (H-YADAIFTASYRKVLGQLSARKLLQDI[Nle]SR-NH2)
In Vitro Potencies: 2.143(1.178-4.065)

[Ala^16, Nle^27 ]-hGRF(1-29)-NH2 (YADAIFTNSYRKVLGALSARKLLQDI[Nle]SR-NH2; N-terminus assumed; SMILES CCCC[C@H](NC(=O)[C@@H](NC(=O)[C@H](CC(=O)O)NC(=O)[C@H](CCC(N)=O)NC(=O)[C@H](CC(C)C)NC(=O)[C@H](CC(C)C)NC(=O)[C@H](CCCCN)NC(=O)[C@H](CCCNC(=N)N)NC(=O)[C@H](C)NC(=O)[C@H](CO)NC(=O)[C@H](CC(C)C)NC(=O)[C@H](C)NC(=O)CNC(=O)[C@H](CC(C)C)NC(=O)[C@@H](NC(=O)[C@H](CCCCN)NC(=O)[C@H](CCCNC(=N)N)NC(=O)[C@H](Cc1ccc(O)cc1)NC(=O)[C@H](CO)NC(=O)[C@H](CC(N)=O)NC(=O)[C@@H](NC(=O)[C@H](Cc1ccccc1)NC(=O)[C@@H](NC(=O)[C@H](C)NC(=O)[C@H](CC(=O)O)NC(=O)[C@H](C)NC(=O)[C@@H](N)Cc1ccc(O)cc1)[C@@H](C)CC)[C@@H](C)O)C(C)C)[C@@H](C)CC)C(=O)N[C@@H](CO)C(=O)N[C@@H](CCCNC(=N)N)C(N)=O) [Example No. 2]
In Vitro Potencies: 1.502(0.727-2.859)

CCCC[C@H](NC(=O)[C@@H](NC(=O)[C@H](CC(=O)O)NC(=O)[C@H](C)NC(=O)[C@H](CC(C)C)NC(=O)[C@H](CC(C)C)NC(=O)[C@H](CCCCN)NC(=O)[C@H](CCCNC(=N)N)NC(=O)[C@H](C)NC(=O)[C@H](CO)NC(=O)[C@H](CC(C)C)NC(=O)[C@H](CCC(N)=O)NC(=O)CNC(=O)[C@H](CC(C)C)NC(=O)[C@@H](NC(=O)[C@H](CCCCN)NC(=O)[C@H](CCCNC(=N)N)NC(=O)[C@H](Cc1ccc(O)cc1)NC(=O)[C@H](CO)NC(=O)[C@H](CC(N)=O)NC(=O)[C@@H](NC(=O)[C@H](Cc1ccccc1)NC(=O)[C@@H](NC(=O)[C@H](C)NC(=O)[C@H](CC(=O)O)NC(=O)[C@H](C)NC(=O)[C@@H](N)Cc1ccc(O)cc1)[C@@H](C)CC)[C@@H](C)O)C(C)C)[C@@H](C)CC)C(=O)N[C@@H](CO)C(=O)N[C@@H](CCCNC(=N)N)C(N)=O [Example No. 3, [Ala^24, Nle^27]-hGRF(1-29)-NH2] (H-YADAIFTNSYRKVLGQLSARKLLADI[Nle]SR-NH2)
In Vitro Potencies: 1.345(0.595-2.068)

CC[C@H](C)[C@H](NC(=O)[C@H](C)NC(=O)[C@H](CC(=O)O)NC(=O)[C@H](C)NC(=O)[C@@H](N)Cc1ccc(O)cc1)C(=O)N[C@@H](Cc1ccccc1)C(=O)N[C@H](C(=O)N[C@@H](CC(N)=O)C(=O)N[C@@H](CO)C(=O)N[C@@H](Cc1ccc(O)cc1)C(=O)N[C@@H](CCCNC(=N)N)C(=O)N[C@@H](CCCCN)C(=O)N[C@H](C(=O)N[C@@H](CC(C)C)C(=O)NCC(=O)N[C@@H](CCC(N)=O)C(=O)N[C@@H](CC(C)C)C(=O)N[C@@H](CO)C(=O)N[C@@H](C)C(=O)N[C@@H](CCCNC(=N)N)C(=O)N[C@@H](CCCCN)C(=O)N[C@@H](CC(C)C)C(=O)N[C@@H](CC(C)C)C(=O)N[C@@H](CCC(N)=O)C(=O)N[C@@H](CC(=O)O)C(=O)N[C@H](C(=O)N[C@@H](CCSC)C(=O)N[C@@H](CO)C(=O)N[C@@H](CCCNC(=N)N)C(=O)N[C@@H](CCC(N)=O)C(=O)N[C@@H](CCC(N)=O)C(=O)NCC(=O)N[C@@H](CCC(=O)O)C(=O)N[C@@H](CO)C(=O)N[C@@H](CC(N)=O)C(=O)N[C@@H](CCC(N)=O)C(=O)N[C@@H](CCC(=O)O)C(=O)N[C@@H](CCCNC(=N)N)C(=O)NCC(=O)N[C@@H](C)C(=O)O)[C@@H](C)CC)C(C)C)[C@@H](C)O [hGRF(1-40)-OH, reference compound]
In Vitro Potencies: 1.0
